{"source": "paper PMC10244465", "about": "“Native American ataxia medicines rescue ataxia-linked mutant potassium channel activity via binding to the voltage sensing domain” (Nature Communications, 2023)", "assay_type_in_all_cases": "cell-based", "key": {"[1]": {"molecular_target": "T1, Kv1.1/Kv1.1-E283K/Kv1.2 channels (Homo sapiens, UniProt Q09470, E283K)", "T1 construct": "expressed in transfected cells; host or cells: Xenopus laevis oocytes co-injected 1:1:2 Kv1.1:Kv1.1-E283K:Kv1.2 cRNA", "T1 sequence (Q09470 whole entry, stated change not applied)": "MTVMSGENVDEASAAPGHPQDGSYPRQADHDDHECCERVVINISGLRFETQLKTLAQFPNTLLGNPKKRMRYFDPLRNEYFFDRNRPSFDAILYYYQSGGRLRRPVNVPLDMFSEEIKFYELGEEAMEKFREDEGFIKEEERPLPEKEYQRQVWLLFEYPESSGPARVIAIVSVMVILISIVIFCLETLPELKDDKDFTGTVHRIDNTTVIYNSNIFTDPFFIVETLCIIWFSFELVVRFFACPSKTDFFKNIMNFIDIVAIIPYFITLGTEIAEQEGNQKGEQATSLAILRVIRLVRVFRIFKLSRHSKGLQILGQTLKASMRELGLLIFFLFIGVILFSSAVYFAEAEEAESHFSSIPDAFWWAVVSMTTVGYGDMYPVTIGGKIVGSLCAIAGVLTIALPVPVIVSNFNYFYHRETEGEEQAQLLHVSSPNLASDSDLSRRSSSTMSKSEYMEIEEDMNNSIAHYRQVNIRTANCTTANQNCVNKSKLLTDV", "T1 sequence (Q09470 whole entry E283K)": "as the sequence (Q09470 whole entry, stated change not applied) above, with E283K counted along it", "T1 sequence (P16389 whole entry partner)": "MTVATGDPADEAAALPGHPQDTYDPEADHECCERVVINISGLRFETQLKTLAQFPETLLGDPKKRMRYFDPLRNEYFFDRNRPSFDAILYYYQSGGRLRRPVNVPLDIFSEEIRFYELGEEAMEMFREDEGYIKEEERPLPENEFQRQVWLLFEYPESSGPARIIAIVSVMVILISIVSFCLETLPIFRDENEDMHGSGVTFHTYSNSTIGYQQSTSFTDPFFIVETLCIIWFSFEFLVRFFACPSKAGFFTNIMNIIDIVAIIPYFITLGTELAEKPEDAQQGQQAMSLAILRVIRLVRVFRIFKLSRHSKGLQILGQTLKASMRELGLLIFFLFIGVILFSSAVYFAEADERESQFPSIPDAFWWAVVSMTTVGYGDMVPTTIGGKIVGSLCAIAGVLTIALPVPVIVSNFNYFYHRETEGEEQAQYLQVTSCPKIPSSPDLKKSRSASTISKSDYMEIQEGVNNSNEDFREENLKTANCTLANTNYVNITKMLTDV", "assay": "TEVC of oocytes co-injected 1:1:2 Kv1.1:Kv1.1-E283K:Kv1.2 cRNA", "conditions": "even at 0.1 µM", "text": "(§1) Kv1.1 α subunits form heteromeric tetramers with other Kv1 subfamily α subunits, including Kv1.2, in the […] region of axons and some terminals, in the hippocampus (perforant input from entorhinal cortex, mossy fiber projections from granule cells to CA3, and CA3 axon collaterals)[7]–[11]. We therefore tested effects of gallic acid on Kv1.1/Kv1.2 heteromers generated in oocytes by co-injection of 1:1:2 parts Kv1.1:Kv1.1-E283K:Kv1.2 or Kv1.1:Kv1.1-L155P:Kv1.2 cRNA to approximate the Kv1.1/Kv1.2 heteromeric channel composition in EA1 patients heterozygous for either mutant KCNA1 allele. […]\n(§2) We performed TEVC at room temperature using an OC-725C amplifier (Warner Instruments, Hamden, CT) and pClamp10 software (Molecular Devices, Sunnyvale, CA) 2 days after cRNA injection as described in the section above. […] We recorded currents in response to voltage pulses between −80 mV and +40 mV at 10 or 20 mV intervals from a holding potential of −80 mV, to yield current-voltage relationships and examine activation kinetics. To calculate the voltage dependence of activation (V0.5), tail currents were recorded at a voltage pulse of −50 mV immediately following prepulse voltages between −80 mV and +40 mV. We analyzed data using Clampfit (Molecular Devices) and Graphpad Prism software (GraphPad, San Diego, CA, USA), stating values as mean ± SEM. […]"}, "[2]": {"molecular_target": "T2, Kv1.1/Kv1.1-L155P/Kv1.2 channels (Homo sapiens, UniProt Q09470, L155P)", "T2 construct": "expressed in transfected cells; host or cells: Xenopus laevis oocytes co-injected 1:1:2 Kv1.1:Kv1.1-L155P:Kv1.2 cRNA", "T2 sequence (Q09470 whole entry, stated change not applied)": "as the sequence (Q09470 whole entry, stated change not applied) above", "T2 sequence (Q09470 whole entry L155P)": "as the sequence (Q09470 whole entry, stated change not applied) above, with L155P counted along it", "T2 sequence (P16389 whole entry partner)": "as the sequence (P16389 whole entry partner) above", "assay": "TEVC of oocytes co-injected 1:1:2 Kv1.1:Kv1.1-L155P:Kv1.2 cRNA", "conditions": "at 0.1 µM and higher", "text": "as §1, §2"}, "[3]": {"molecular_target": "T3, Kv1.1-I182S, E192I, K195N (Kv1.1–3 M) (Homo sapiens, UniProt Q09470, E191I/I183S/K196N)", "T3 construct": "expressed in transfected cells; host or cells: Xenopus laevis oocytes", "T3 sequence (Q09470 whole entry I183S/E191I/K196N)": "as the sequence (Q09470 whole entry, stated change not applied) above, with I183S, E191I, K196N counted along it", "assay": "TEVC of oocytes expressing Kv1.1-3M", "text": "The functional data support a Kv1.1 gallic acid-binding site similar to that predicted by the MD simulation (Fig. 10f; Supplementary Movie 1).\nWild-type and mutant Kv1 cDNAs were generated (Genscript, Piscataway, NJ) in the pTLNx expression vector. As previously described, we generated cRNA transcripts encoding human Kv1.1 (wild-type and mutant) and Kv1.2, by in vitro transcription using the mMessage mMachine kit (Thermo Fisher Scientific), after vector linearization, from cDNA sub-cloned into plasmids (pTLNx) incorporating Xenopus laevis β-globin 5’ and 3’ UTRs flanking the coding region to enhance translation and cRNA stability. We injected defolliculated stage V and VI Xenopus laevis oocytes (Xenoocyte, Dexter, MI, US) with Kv1 cRNAs (1–5 ng). We incubated the oocytes at 16 °C in ND96 oocyte storage solution containing penicillin and streptomycin, with daily washing, for 2 days prior to two-electrode voltage-clamp (TEVC) recording.\nas §2, with “above. For recording, oocytes we placed in a small-volume oocyte bath (Warner) and viewed with a dissection microscope. We sourced chemicals from Sigma. We studied effects of plant extracts and of compounds, solubilized directly in bath solution (in mM): 96 NaCl, 4 KCl, 1 MgCl2, 1 CaCl2, 10 HEPES (pH 7.6).” for “above.”"}}}
{"smiles": "O=C(O)c1cc(O)c(O)c(O)c1", "note": "[gallic acid]", "values": [{"measurement": "rescue of channel activity", "setting": "[1]", "value": "highly effective at rescuing"}, {"measurement": "rescue of channel activity", "setting": "[2]", "value": "highly effective at rescuing"}, {"measurement": "EC50", "setting": "[3]", "value": "345 ± 38", "unit": "nM"}, {"measurement": "EC50 for peak current augmentation", "setting": "[3]; at −40 mV", "value": "not measurable"}, {"measurement": "maximal peak current augmentation compared to Kv1.1", "setting": "[3]; at −40 mV", "value": "reduced fivefold"}]}
